One assay concerns the target Prothrombin (Homo sapiens, UniProt P00734). Briefly: Binding affinity against thrombin.
The target in assay [1] is Prothrombin (Rattus norvegicus) (UniProt P18292).
Description: Compound was tested for the antithrombic effect in rat arterial thrombosis model and expressed as thrombin time(TT)
Assay [2] has the same target. This is another data set of the same source.
Description: Compound was tested for the antithrombic effect in rat arterial thrombosis model and expressed as mean occlusion time(MOT)
Assay [3] has the same target. The source holds these as a separate data set.
Description: Compound was tested for the antithrombic effect in rat arterial thrombosis model and expressed as activated partial thromboplastin time(PTT)

Each structure is given as a SMILES string.

Compound `N=C(N)NCCCC(NC(=O)[C@@H]1CC[C@H]2CN(C(=O)CCc3ccc4ccccc4c3)CC(=O)N21)C(=O)c1nccs1` (some centres undefined) had a Ki on Prothrombin of 0.5 nM. This lies in the sub-nanomolar range.
`COc1ccc(CCC(=O)N2CC(=O)N3[C@@H](CC[C@H]3C(=O)NC(CCCN=C(N)N)C(=O)c3nccs3)C2)cc1` (some centres undefined): the TT in assay [1] was 633 s. In addition, the Ki at Prothrombin amounted to 0.5 nM. For the same compound, the MOT in assay [2] is > 60 min. The same compound gave an APTT in assay [3] of 55.2 s.
For `NC(N)=NCCCC(NC(=O)[C@@H]1CC[C@H]2CN(C(=O)[C@@H](N)Cc3c[nH]c4ccccc34)CC(=O)N21)C(=O)c1nccs1` (stereo in doubt; 33), on Prothrombin, the Ki came to 75.3 nM. In other words, the double-digit nanomolar range.
On the same count and under the same terms, under `N=C(N)NCCCC(NC(=O)[C@@H]1CC[C@H]2CN(C(=O)NCc3ccccc3)CC(=O)N21)C(=O)c1nccs1` (some centres undefined) stands 58 nM.
In assay [1], `NC(N)=NCCCC(NC(=O)[C@@H]1CC[C@H]2CN(C(=O)[C@@H](N)Cc3ccc(O)cc3)CC(=O)N21)C(=O)c1nccs1` (stereo in doubt; 32) yielded a TT of 433 s. Further, the MOT in assay [2] was 53 min. In assay [3], this compound showed an APTT of 76 s.
Taken in the same sequence, the figures for `NC(N)=NCCCC(NC(=O)[C@@H]1CC[C@H]2CN(C(=O)[C@@H](N)Cc3c[nH]c4ccccc34)CC(=O)N21)C(=O)c1nccs1` (stereo in doubt; 34) [listing 1 of 2 here] were 929 s, > 60 min and 188 s.
`NC(N)=NCCCC(NC(=O)[C@@H]1CC[C@H]2CN(C(=O)[C@@H](N)Cc3c[nH]c4ccccc34)CC(=O)N21)C(=O)c1nccs1` (stereo in doubt; 34) [listing 2 of 2 here] came in with a Ki at Prothrombin of 0.96 nM.
The same measure, in the same setting: under `N=C(N)NCCCC(NC(=O)[C@@H]1CC[C@H]2CN(C(=O)CCc3ccc(Cl)c(Cl)c3)CC(=O)N21)C(=O)c1nccs1` (some centres undefined) stands 0.106 nM.
In assay [1], `N=C(N)NCCCC(NC(=O)[C@@H]1CC[C@H]2CN(C(=O)CCc3ccccc3)CC(=O)N21)C(=O)c1nccs1` (some centres undefined) had a TT of 381 s. This compound also gave an MOT in assay [2] of 42.2 min. The compound also yielded an APTT in assay [3] of 44.3 s.
Taken in the same sequence, the figures for `N=C(N)NCCCC(NC(=O)[C@@H]1CC[C@H]2CN(C(=O)[C@@H](O)c3ccccc3)CC(=O)N21)C(=O)c1nccs1` (stereo in doubt; 29) [listing 1 of 2 here] were 476 s, > 60 min and 49.1 s.
In turn, `N=C(N)NCCCC(NC(=O)[C@@H]1CC[C@H]2CN(C(=O)Cc3ccccc3)CC(=O)N21)C(=O)c1nccs1` (some centres undefined) gave a TT in assay [1] of 387 s. This compound also returned a Ki at Prothrombin of 2.5 nM. For the same compound, the MOT in assay [2] is > 60 min. In assay [3], this compound returned an APTT of 79.2 s.
For `NC(N)=NCCCC(NC(=O)[C@@H]1CC[C@H]2CN(C(=O)[C@@H](N)Cc3ccc(F)cc3)CC(=O)N21)C(=O)c1nccs1` (some centres undefined), in that order: 557 s, 3 nM, 47.7 min and 44.2 s.
Regarding `N=C(N)NCCCC(NC(=O)[C@@H]1CC[C@H]2CN(C(=O)[C@@H](O)c3ccccc3)CC(=O)N21)C(=O)c1nccs1` (stereo in doubt; 28), the Ki at Prothrombin worked out at 84 nM.
On to `Cc1ccc(CCC(=O)N2CC(=O)N3[C@@H](CC[C@H]3C(=O)NC(CCCN=C(N)N)C(=O)c3nccs3)C2)cc1` (some centres undefined), for which, in assay [1], the TT was > 999 s. Besides, at Prothrombin, affinity was put at a Ki of 0.5 nM. The MOT in assay [2] was > 60 min. This compound returned an APTT in assay [3] of 88 s.
For `N=C(N)NCCCC(NC(=O)[C@@H]1CC[C@H]2CN(CCCc3ccccc3)CC(=O)N21)C(=O)c1nccs1` (some centres undefined), the TT in assay [1] was found to be 122 s. Further, the Ki at Prothrombin came to 17 nM. In assay [2], this compound had an MOT of 28.3 min. The APTT in assay [3] is 30.5 s.
`N=C(N)NCCCC(NC(=O)[C@@H]1CC[C@H]2CN(C(=O)CCc3ccccn3)CC(=O)N21)C(=O)c1nccs1` (some centres undefined) returned a TT in assay [1] of 557 s. The compound further gave a Ki at Prothrombin of 3 nM. In addition, the MOT in assay [2] was 47.6 min. In addition, the APTT in assay [3] came to 44.2 s.
`N=C(N)NCCCC(NC(=O)[C@@H]1CC[C@H]2CN(C(=O)C3Cc4ccccc4CN3)CC(=O)N21)C(=O)c1nccs1` (some centres undefined): the Ki at Prothrombin worked out at 32 nM.
For `N=C(N)NCCCC(NC(=O)[C@@H]1CC[C@H]2CN(C(=O)COc3ccccc3)CC(=O)N21)C(=O)c1nccs1` (some centres undefined), the TT in assay [1] was 248 s. The compound also gave a Ki on Prothrombin of 16 nM. This compound also gave an MOT in assay [2] of 37.8 min. The APTT in assay [3] was 31.5 s.
On Prothrombin, `N=C(N)NCCCC(NC(=O)[C@@H]1CC[C@H]2CN(C(=O)OCc3ccccc3)CC(=O)N21)C(=O)c1nccs1` (some centres undefined) registered an inhibition constant Ki of 50 nM.
Take `N=C(N)NCCCC(NC(=O)[C@@H]1CC[C@H]2CN(C(=O)CCC3CCCCC3)CC(=O)N21)C(=O)c1nccs1` (some centres undefined): the TT in assay [1] was determined as 320 s. Also, at Prothrombin, the affinity, expressed as Ki, was 24 nM. Moreover, the MOT in assay [2] came to 25.4 min. Besides, the APTT in assay [3] worked out at 52.4 s.
Taken in the same sequence, the figures for `N=C(N)NCCCC(NC(=O)[C@@H]1CC[C@H]2CN(C(=O)[C@@H](O)Cc3ccccc3)CC(=O)N21)C(=O)c1nccs1` (some centres undefined) were 679 s, 4.4 nM, > 60 min and 463 s.
On to `N=C(N)NCCCC(NC(=O)[C@@H]1CC[C@H]2CN(C(=O)c3ccccc3)CC(=O)N21)C(=O)c1nccs1` (some centres undefined), for which the TT in assay [1] was 144 s. In assay [2], the MOT worked out at 45.8 min. This compound had an APTT in assay [3] of 25.5 s.
On to `N=C(N)NCCCC(NC(=O)[C@@H]1CC[C@H]2CN(C(=O)CCCc3ccccc3)CC(=O)N21)C(=O)c1nccs1` (some centres undefined), for which the TT in assay [1] was found to be 494 s. The Ki on Prothrombin stood at 1.2 nM. Moreover, the MOT in assay [2] is > 60 min. The same compound had an APTT in assay [3] of 120 s.
For `N=C(N)NCCCC(NC(=O)[C@@H]1CC[C@H]2CN(C(=O)CCOc3ccccc3)CC(=O)N21)C(=O)c1nccs1` (some centres undefined), in that order: 276 s, 5 nM, 47.7 min and 45.2 s.
`N=C(N)NCCCC(NC(=O)[C@@H]1CC[C@H]2CN(C(=O)[C@@H](N)Cc3ccc(O)cc3)CC(=O)N21)C(=O)c1nccs1` (stereo in doubt; 32) displayed a Ki on Prothrombin of 18 nM.
Consider `N=C(N)NCCCC(NC(=O)[C@@H]1CC[C@H]2CN(C(=O)CCc3ccccc3C(F)(F)F)CC(=O)N21)C(=O)c1nccs1` (some centres undefined), for which, in assay [1], the TT was > 999 s. This compound also showed a Ki at Prothrombin of 0.5 nM. The MOT in assay [2] was > 60 min. In assay [3], this compound came in with an APTT of 90 s.
Turning to `N=C(N)NCCCC(NC(=O)[C@@H]1CC[C@H]2CN(C(=O)CCc3ccccc3F)CC(=O)N21)C(=O)c1nccs1` (some centres undefined), the Ki on Prothrombin was 0.92 nM.
`N=C(N)NCCCC(NC(=O)[C@@H]1CC[C@H]2CN(C(=O)[C@@H](N)Cc3ccc(O)cc3)CC(=O)N21)C(=O)c1nccs1` (stereo in doubt; 31): the affinity at Prothrombin, expressed as Ki, was 160 nM.
Consider `N=C(N)NCCCC(NC(=O)[C@@H]1CC[C@H]2CN(C(=O)CCc3cccc4ccccc34)CC(=O)N21)C(=O)c1nccs1` (some centres undefined), for which the TT in assay [1] was > 600 s. This compound also came in with a Ki at Prothrombin of 0.35 nM. The MOT in assay [2] is 33.2 min. For the same compound, the APTT in assay [3] is 217 s.
On Prothrombin, `N=C(N)NCCCC(NC(=O)[C@@H]1CC[C@H]2CN(C(=O)[C@@H](O)c3ccccc3)CC(=O)N21)C(=O)c1nccs1` (stereo in doubt; 29) [listing 2 of 2 here] showed a Ki of 16 nM.

As usually defined, the Ki is a measure of affinity in units of concentration, obtained from inhibition or displacement. A higher Ki goes with a looser hold on the target.

The values above are taken from ChEMBL document CHEMBL1130670, “Potent bicyclic lactam inhibitors of thrombin: Part I: P3 modifications” (Bioorg Med Chem Lett, 1998).
